From patent US7166612B2, “Methods for reducing platelet activation platelet aggregaton or thrombosis” (Beth Israel Deaconess Medical Center, priority 2001, dated 2007)

Columns and labels:
platelets [1] = experiment: platelet aggregation (aggregometer); format: cell-based, human; details: in words
Experimental: Platelet aggregation profiling is a standard methodology, generally performed with an instrument adapted for that express purpose, for example, a Platelet Aggregation Profiler (BioData, Horsham, Pa.). The assays can generally be performed according to the instructions of the manufacturer. As exemplary conditions, 400 μl of PRP are incubated with inhibitor for 15 minutes at room temperature. The sample is then incubated for 3 minutes at 37° C. in the Platelet Aggregation Profiler. The instrument is calibrated with platelet poor plasma serving as a blank. A baseline tracing is established by monitoring the light transmittance of PRP being stirred at 1200 rpm. Aggregation is initiated by the addition of SFLLR (200 μM) and the percent of platelet aggregation is measured by the change in light transmittance for 6 minutes following addition of SFLLR.

[2] = system: platelet F-actin assembly; experiment: F-actin assembly (FITC-phalloidin, flow cytometry); format: cell-based; details: in words
Excerpt: To determine whether or not the effects of the pyridazinone compound were limited to inhibition of alpha-granule secretion, the ability of the compound to inhibit F-actin assembly and aIIbβ3 activation was examined. F-actin assembly was detected using FITC-phalloidin and quantified by flow cytometry (Winokur et al., 1995, Blood 85, 1796–804; Oda et al., 1992, Blood 79, 920–7).

platelets [3] = experiment: agonist-induced platelet granule secretion (P-selectin expression, flow cytometry); format: cell-based, human; details: for effect on PMA-induced platelet activation: in words
Experimental: In order to assay platelet activation by cell surface marker expression, fresh PRP is isolated from donors who have not ingested aspirin for two weeks prior to donation. PRP (40 μl) is incubated with known or suspected inhibitor in DMSO or DMSO alone for 15 min. The sample is then incubated with the indicated agonist (e.g., SFLLR) for 10 min. Following incubation of the sample with the indicated agonist, 10 μl of reaction mixture is transferred to 5 μl of phycoerythrin (PE)-conjugated AC 1.2 anti-P-selectin antibody (for assessment of P-selectin surface expression) or fluorescein isothiocyanate (FITC)-conjugated PAC-1 antibody (for assessment of GPIIbIIIa activation). PBS (500 μl) is added to the sample after a 20 min incubation and the platelets are analyzed immediately by flow cytometry. Flow cytometry can be performed using, for example, a Becton-Dickinson FACSCalibur flow cytometer or its equivalent. Fluorescent channels are set at logarithmic gain. Ten thousand particles are acquired for each sample. A 530/30 band pass filter is used for FL-1 fluorescence. A 585/42 band pass filter is used for FL-2 fluorescence. FITC is measured in the FL-1 channel and PE is measured in the FL-2 channel. Data are analyzed using, for example, CellQuest software on a Macintosh PowerPC, or their equivalents. […]
Each of the compounds was tested for inhibition of platelet activation in response to the agonists SFLLR (a thrombin mimic), U46619 (a thromboxane A2 mimic), ADP and the phorbol ester PMA.
Compounds were also tested by flow cytometry for the inhibition of SFLLR-induced GPIIbIIIa activation and P-selectin expression. In these experiments, freshly obtained PRP was prepared from healthy volunteers who had not ingested aspirin for two weeks prior to donation. Forty μl of PRP was incubated with inhibitor in DMSO or DMSO alone for 15 min. The sample was then incubated with the indicated agonist for 10 min. Following incubation of the sample with the indicated agonist, 10 μl of reaction mixture was transferred to 5 μl of PE-conjugated AC1.2 anti-P-selectin antibody (for assessment of P-selectin surface expression) or FITC-conjugated PAC-1 antibody (for assessment of GPIIbIIIa activation). PBS (500 μl) was added to the sample after a 20 min incubation and the platelets were analyzed immediately by flow cytometry. Flow cytometry was performed using a Becton-Dickinson FACSCalibur flow cytometer. Fluorescent channels were set at logarithmic gain. Ten thousand particles were acquired for each sample. A 530/30 band pass filter was used for FL-1 fluorescence. A 585/42 band pass filter was used for FL-2 fluorescence. FITC was measured in the FL-1 channel and PE was measured in the FL-2 channel. Data were analyzed using CellQuest software on a MacIntosh PowerPC.
Compound was tested for its ability to inhibit SFLLR-, U46619-, ADP-, PMA-, and collagen I-induced platelet α-granule secretion. In these assays, platelets were incubated with increasing doses of compound for 30 minutes. The platelets were then exposed to a maximally stimulatory dose of the indicated agonist. P-selectin surface expression was analyzed by flow cytometry using phycoerythrin-anti-P-selectin to monitor for α-granule secretion.

What does the source list for `CC1CC(=O)NN=C1c1ccc(N)c([N+](=O)[O-])c1` (centres unmarked) [6-(4-Amino-3-nitro-phenyl)-5-methyl-4,5-dihydro-2H-pyridazin-3-one]?
inhibition of SFLLR-induced platelet aggregation (platelets [1]): potent inhibitor; SFLLR-induced F-actin assembly [2]: interferes with SFLLR-induced cytoskeleton rearrangement; IC50s for ADP- and collagen-induced granule release less potent than SFLLR/U46619 (platelets [3]; ADP, collagen vs SFLLR, U46619): at least 25 fold; effect on PMA-induced platelet activation (platelets [3]; listed as Structure 8): did not inhibit; effect on PMA-induced platelet activation (platelets [3]; listed as pyridazinone compound): No inhibition
